# Patent publication US8637050B2, “Peptide vaccines against group A streptococci” (The United States of America, as represented by the …, priority 2001, dated 2014)
# Test system: rabbit sera prepared against whole M protein
# Experiment: ELISA: peptide recognition by anti-M protein rabbit sera
# Type: binding
# Description: Overlapping peptides representing each M type were assessed for their immunogenicity using ELISA and dot-immunoblot.
# Levels of anti-M protein antibodies in mouse sera were determined by an enzyme-linked immunosorbent assay (ELISA) using either synthetic peptides or whole M protein as antigen. Microtiter plates (DYNEX Immulon 2 HB) were coated with 10 μg/ml antigen in 10 mM phosphate-buffered saline (PBS) at 4° C. overnight. Plates were rinsed three times with wash buffer (0.05% Tween 20 in 10 mM PBS, pH 7.2) and blocked with 1% BSA in PBS for one hour at 37° C. The appropriate test sera were applied at a starting dilution of 1:1000 and serially diluted two fold down the plate in PBS. Plates were incubated at 37° C. for 30 minutes and subsequently rinsed three times. Goat anti-rabbit or goat anti-mouse Ig-peroxidase conjugate diluted 1:10,000 in PBS was added to all wells and incubated for two hours at 37° C. Plates were rinsed three times with wash buffer and freshly prepared TMB peroxidase (Kirkegaard and Perry Laboratories) was added. Reactions were quenched with 0.18 M H2SO4 after 30 minutes at room temperature and OD450 was measured with a Labsystems Multiskan plate reader using Ascent software. ELISA titers are expressed as the reciprocal of the last dilution which gave a reading OD450>0.10.
# The immunoreactivity of several synthetic peptides was determined by ELISA using rabbit sera prepared against whole M protein. The synthetic peptides are representative of relatively small portions of the M protein N-terminus; therefore, it was advantageous to determine if the epitopes contained within particular peptides were immunoreactive with sera prepared against whole M protein. It was shown that the whole anti-M protein rabbit sera of the respective serotypes could bind to each of the synthetic peptides within that serotype. However, some peptides were more highly immunoreactive than others, thus being better suited for use in the animal studies.
row,Sequence,immunoreactivity by ELISA using rabbit sera prepared against whole M protein
1,CEGNARLAQAQEEALRDVLNN [Peptide M41-1],confirmed
2,CEGVSVGSDASLHNRITDLEEEREK [Peptide M77-1],confirmed
3,CEIQNHQLTVENKKLKTDKEQ [Peptide M18-3],confirmed
4,CEKLREELQQYYALSDAKEEE [Peptide M22-6],confirmed
5,CELFEKLDKVEEEHKKVEEEHKK [Peptide M2-4],confirmed
6,CELHDKIKNLEEEKAELFEKLD [Peptide M2-3],confirmed
7,CELHNEIADLEEERGEHLDKID [Peptide M89-4],confirmed
8,CELHNKIADLEEERGAHLDKID [Peptide M89-5],confirmed
9,CELPYEARYKAWKSENDELREN [Peptide M75-2],confirmed
10,CELTLQQKYDALTNENKSLRRE [Peptide M59-2],confirmed
11,CELYNKIQELEEGKAELFDKLEK [Peptide M73-3],confirmed
12,CEMQQRGTNFGPLLASTMRDNH [Peptide M33-3],confirmed
13,CENHDLKTKNEGLKTENEGLK [Peptide M5-3],confirmed
14,CENPDKARELLNKYDVENSMLQ [Peptide M6-3],confirmed
15,CENSMLQANNDNLTDQNKNLTD [Peptide M6-4],confirmed
16,CEQAKNNNGELTLQQKYDALT [Peptide M59-1],confirmed
17,CESKLINTLTDENEKLREELQQ [Peptide M22-3],confirmed
18,CESLRREKDRYLYEKEELEKK [Peptide M94-3],confirmed
19,CESSNISQESKLINTLTDENEK [Peptide M22-2],confirmed
20,CESSNNAESSNISQESKLINT [Peptide M22-1],confirmed
21,CEYDDLLAKHGELLSEYDALK [Peptide M92-3],confirmed
22,CHDLKTKNEGLKTENEGLKTEN [Peptide M5-9],confirmed
23,CHEKVTQAREAVIREMQQRGT [Peptide M33-2],confirmed
24,CHEREKNDKLSSENEGLK [Peptide M101-3],confirmed
25,CHPDVVAARESVLNNVRVPGT [Peptide M43-2],confirmed
26,CIRLRHHENKDLKARLENAMEV [Peptide M1-8],confirmed

row,Sequence,immunoreactivity by ELISA using rabbit sera prepared against whole M protein
1,CIRNIRLRHENKDLKARLENA [Peptide M1-5],confirmed
2,CKAKELEKQVEEYKKNYETLEK [Peptide M58-3],confirmed
3,CKAWKSENDELRENYRKTLDK [Peptide M75-4],confirmed
4,CKDELIKRKELTIIEIQNHQL [Peptide M18-5],confirmed
5,CKDEVLSKFSVPGHVWAHERE [Peptide M101-2],confirmed
6,CKENEELKVEREKYLSYADDK [Peptide M4-3],confirmed
7,CKFERLKQRSELYLHQYYDNK [Peptide M12-4],confirmed
8,CKFERLKRRSELYLQQYYDNK [Peptide M12-5],confirmed
9,CKGTNVSADLYNSLWDENKT [Peptide M11-2],confirmed
10,CKKEAKKLNEAELYNKIQELE [Peptide M73-2],confirmed
11,CKKEAKLSEAELHDKIKNLEEEK [Peptide M2-2],confirmed
12,CKKEATKLSEAELYNKIQELEE [st2967-3],confirmed
13,CKNDKLSSENEGLKAGLQEKE [Peptide M101-5],confirmed
14,CKQRSELYLQQYYDNKSNRYK [Peptide M12-6],confirmed
15,CKSTETSANGADKLADAYNTL [Peptide M28-2],confirmed
16,CLAQVTQLYTKHNSNYQQYNA [Peptide M3-7],confirmed
17,CLDQVTQLYTKHNSNYQQYNA [Peptide M3-3],confirmed
18,CLDQVTQLYTKHNSNYQQYSA [Peptide M3-5],confirmed
19,CLEEERGEHLDKIDELKEELK [Peptide M89-8],confirmed
20,CLNKLDKVEEEHKKDHEQLEK [Peptide M77-5],confirmed
21,CLNQVTQLHTKHNSNYQQYNA [Peptide M3-8],confirmed
22,CLNQVTQLYTKHNSNYQQYNA [Peptide M3-6],confirmed
23,CLRQKEENDKLKLEKKGLETE [Peptide M43-4],confirmed
24,CNDELRENYRRTLDKFNTEQ [Peptide M75-3],confirmed
25,CNENKSLRRERDNYLNYLYEK [Peptide M59-3],confirmed
26,CNGDGNPREVIEDLAANNPAIQ [Peptide M1-1],confirmed

row,Sequence,immunoreactivity by ELISA using rabbit sera prepared against whole M protein
1,CNGDGNPREVIEDLAANNPVIQ [Peptide M1-6],confirmed
2,CNGDGNPRVVIEDLAANNPAIQ [Peptide M1-7],confirmed
3,CNHQLTVENKKLKTDKEQLTKE [Peptide M18-6],confirmed
4,CNSKNPAPAPASAVPVKKEATK [st2967-1],confirmed
5,CNSKNPAPAPAVPVKKEATKL [st2967-4],confirmed
6,CNSKNPAPAVPVKKEATKLSE [st2967-5],confirmed
7,CNSKNPVPVKKEAKLSEAELHDK [Peptide M2-1],confirmed
8,CNSMLQANNDKLTTENKNLTD [Peptide M6-5],confirmed
9,CNTLNTLTDENEKLREELQQ [Peptide M22-4],confirmed
10,CQAQEEALRDVLNNTPHNQLRD [Peptide M41-3],confirmed
11,CQELEEGKAELFDKLEKVEEE [Peptide M73-6],confirmed
12,CQHKNNALTSENESLRREKDR [Peptide M94-2],confirmed
13,CQLRDPYAGAFRRNNELEKIIQE [Peptide M41-5],confirmed
14,CQLYTKHIYTKHNSNYQQYNAQ [Peptide M3-10],confirmed
15,CQRAKAALDKYELENHDLKTKN [Peptide M5-4],confirmed
16,CRATADNKDELIKRANDYEIQ [Peptide M18-2],confirmed
17,CRATADNKDELIKRANGYEIQ [Peptide M18-4],confirmed
18,CRDITEAGVSKFWKSKFDAEQN [Peptide M82-2],confirmed
19,CRENYRRTLDKFNTEQGKTTR [Peptide M75-5],confirmed
20,CREVTNELTASMWKAQADSAK [Peptide M58-2],confirmed
21,CRGTVENPDKARELLNKYDVEN [Peptide M6-2],confirmed
22,CRLAQAQEEALRDVLNNTPHN [Peptide M41-2],confirmed
23,CRREEKDRYLYEKEELEKKNK [Peptide M94-4],confirmed
24,CRRERDNYLNYLYEKEELEKK [Peptide M59-4],confirmed
25,CRSDARSVNGEFPRHVKLKNE [Peptide M3-9],confirmed
26,CRSVSTNSGSVSTPYNNLLNE [Peptide M92-2],confirmed
